According to ChEMBL document CHEMBL1938390, “Pyrazolopyridine inhibitors of B-Raf(V600E). Part 3: an increase in aqueous solubility via the disruption of crystal packing” (Bioorg Med Chem Lett, 2012):
Values after ≈ are worked out from the molar mass of the structure shown.

Legend:
[1] = Solubility of the compound at pH 6.5; format: physicochemical; conditions: buffer
[2] = target: T1, Serine/threonine-protein kinase B-raf (Homo sapiens, UniProt P15056, V600E); assay: Inhibition of full-length B-Raf V600E mutant
T1 sequence (P15056 2-766 V600E limits assumed): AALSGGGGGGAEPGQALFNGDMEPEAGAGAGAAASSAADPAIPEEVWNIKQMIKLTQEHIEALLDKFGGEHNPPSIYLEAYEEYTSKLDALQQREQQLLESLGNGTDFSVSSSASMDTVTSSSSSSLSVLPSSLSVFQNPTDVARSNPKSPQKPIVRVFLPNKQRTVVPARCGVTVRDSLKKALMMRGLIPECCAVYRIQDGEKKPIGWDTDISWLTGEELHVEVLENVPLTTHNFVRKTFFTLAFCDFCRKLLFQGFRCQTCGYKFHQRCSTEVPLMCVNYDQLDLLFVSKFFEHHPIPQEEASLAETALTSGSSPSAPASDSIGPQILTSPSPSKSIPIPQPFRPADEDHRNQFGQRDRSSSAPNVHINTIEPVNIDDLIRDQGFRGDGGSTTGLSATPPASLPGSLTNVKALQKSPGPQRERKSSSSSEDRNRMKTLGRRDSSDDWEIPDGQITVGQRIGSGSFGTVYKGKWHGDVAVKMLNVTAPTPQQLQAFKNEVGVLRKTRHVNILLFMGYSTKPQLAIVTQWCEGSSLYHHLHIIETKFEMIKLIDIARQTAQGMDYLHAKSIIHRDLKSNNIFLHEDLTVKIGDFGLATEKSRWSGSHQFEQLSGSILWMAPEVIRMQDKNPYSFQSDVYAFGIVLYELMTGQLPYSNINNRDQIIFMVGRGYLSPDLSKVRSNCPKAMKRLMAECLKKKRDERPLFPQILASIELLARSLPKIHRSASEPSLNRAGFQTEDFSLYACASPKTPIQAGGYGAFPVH

[3] = target: T1, Serine/threonine-protein kinase B-raf; assay: Inhibition of B-Raf V600E mutant-mediated Erk phosphorylation in human MALME-3M cells; format: cell-based
[4] = Solubility of the compound at pH 7.4; format: physicochemical; conditions: buffer

Row | SMILES | solubility [1] [µg/mL] | IC50 [2] [nM] | IC50 [3] [nM] | solubility [4] [µg/mL]
1 | CCCS(=O)(=O)Nc1ccc(F)c(C(=O)Nc2cnc3[nH]nc(C4CC4)c3c2)c1Cl | 54 (≈ 119 µM) | 3.8 | 33 | 127 (≈ 281 µM)
2 | CCCS(=O)(=O)Nc1ccc(F)c(C(=O)Nc2cnc3[nH]nc(OC)c3c2)c1F | 4 (≈ 9.4 µM) | – | – | 9 (≈ 21.2 µM)
3 | CCCS(=O)(=O)Nc1ccc(F)c(C(=O)Nc2cnc3[nH]nc(C(C)C)c3c2)c1F | 6 (≈ 13.7 µM) | 14 | 89 | –
4 | CCCS(=O)(=O)Nc1ccc(Cl)c(C(=O)Nc2cnc3[nH]nc(OC)c3c2)c1F | < 1 | – | – | 2 (≈ 4.53 µM)

Continued by falling IC50 [2], values first:

Row | solubility [1] [µg/mL] | IC50 [2] [nM] | IC50 [3] [nM] | solubility [4] [µg/mL] | SMILES
5 | 1 (≈ 2.3 µM) | 2.7 | 23 | 4 (≈ 9.19 µM) | CCCS(=O)(=O)Nc1ccc(F)c(C(=O)Nc2cnc3[nH]nc(C4CC4)c3c2)c1F
6 | < 1 | 2.2 | 19 | 2 (≈ 4.53 µM) | CCCS(=O)(=O)Nc1ccc(F)c(C(=O)Nc2cnc3[nH]nc(OC)c3c2)c1Cl
7 | 1 (≈ 2.15 µM) | 2 | 18 | < 1 | CC(C)CS(=O)(=O)Nc1ccc(F)c(C(=O)Nc2cnc3[nH]nc(C4CC4)c3c2)c1Cl
8 | 130 (≈ 277 µM) | 0.6 | 51 | 265 (≈ 564 µM) | O=C(Nc1cnc2[nH]nc(C3CC3)c2c1)c1c(F)ccc(NS(=O)(=O)CCCF)c1Cl
